{"source": "patent US20240299384A1", "about": "“METHODS FOR TREATING PULMONARY HYPERTENSION IN PATIENTS WITH LEFT VENTRICULAR ASSIST DEVICE IMPLANTATION” (ACTELION PHARMACEUTICALS LTD, priority 2021, published 2024)", "system": "healthy male subjects", "assay": "Phase 1 open-label study of 75 mg qd macitentan with and without up-titration: safety", "format": "in vivo, human", "description": "This is a single-sequence, open-label, single-center, Phase 1 study in healthy male subjects. The study assessed the effect of 75 mg qd administration of macitentan. The study includes a screening phase of 21 days before the first macitentan administration, followed by an open-label treatment phase. Randomization was not used and subjects received the same treatment.\n• 29 subjects were enrolled.\nAdministration of 75 mg qd macitentan started on Day 1. Macitentan was administered every day in the morning between 8:00 and 11:00 with 240 mL of noncarbonated water. One 75-mg macitentan film-coated tablet was thus administered as multiple qd oral doses under fed conditions.\nSubjects were planned to take macitentan 75 mg for 15 days. However the study was interrupted on the morning of day 8, i.e. when subjects had received 7 doses of macitentan 75 mg.\nMacitentan was administered in an up-titration regimen in the morning between 8:00 and 11:00 with 240 mL of noncarbonated water. One macitentan film-coated tablet (10 mg, 37.5 mg or 75 mg) was administered as multiple qd oral doses under fed conditions on Days 1-9 and Days 11-12, and under fasted conditions on Days 10 and 13. The up-titration regimen consists of 2 qd doses of 10 mg macitentan and 3 qd doses of 37.5 mg macitentan followed by 8 qd doses of 75 mg macitentan. On Days −4, −3, 10 and 13 (i.e., the days when dosing occurred under fasted conditions), no fluid intake apart from the water taken at the time of macitentan administration was allowed from 1 hour before until 1 hour after administration of macitentan.\nAll reported AEs with onset during the treatment phase were included in the analysis. The effects on cardiovascular variables were evaluated and the following variables were collected: PR (ms), QRS (ms), QT (ms), QTcB (ms), QTcF (ms), heart rate (bpm), and RR. The normal range for vital signs is defined as follows: • Systolic blood pressure: 100-140 mmHg • Diastolic blood pressure: 60-90 mmHg • Pulse rate: 45-90 bpm • Respiratory rate: 8-20 per minute • Body temperature: 35.0° C. to 37.5° C.\nAn AE is any untoward medical occurrence, i.e., any unfavorable and unintended sign (including an abnormal finding), symptom, or disease temporally associated with the use of macitentan. A treatment-emergent AE is any occurrence that is new in onset or aggravated in severity from the baseline condition. The following are used to assess all AEs: • Related: There is a reasonable causal relationship between macitentan administration and the AE. • Not Related: There is not a reasonable causal relationship between macitentan administration and the AE.\nAn assessment of AE severity grade was made using the following general categorical descriptors: • Mild: Awareness of symptoms that are easily tolerated, causing minimal discomfort and not interfering with everyday activities. • Moderate: Sufficient discomfort is present to cause interference with normal activity. • Severe: Extreme distress, causing significant impairment of functioning or incapacitation. Prevents normal everyday activities.", "key": {"[1]": {"settings": "75 mg qd, no titration, 6 subjects"}}, "data": [{"smiles": "CCCNS(=O)(=O)Nc1ncnc(OCCOc2ncc(Br)cn2)c1-c1ccc(Br)cc1", "note": "[Macitentan, propylsulfamic acid [5-(4-bromo-phenyl)-6-[2-(5-bromo-pyrimidin-2-yloxy)-ethoxy]-pyrimidin-4-yl]-amide]", "values": [{"measurement": "reduction in hemoglobin", "setting": "75 mg qd", "result": "≤ 2", "unit": "g/dL"}, {"measurement": "vital signs, ECG and lab parameters", "setting": "75 mg qd", "result": "no clinically significant changes"}, {"measurement": "severity of AEs overall", "setting": "75 mg qd, AEs reported from Day 2 onwards", "result": "mainly mild"}, {"measurement": "Photophobia, Severity of AEs (No titration)", "setting": "[1]", "result": "All mild"}, {"measurement": "Sinusitis/rhinitis/nasal congestion, Severity of AEs (No titration)", "setting": "[1]", "result": "All mild"}, {"measurement": "tolerability with up-titration regimen", "setting": "75 mg, up-titration vs no up-titration", "result": "improved tolerability"}, {"measurement": "resolution of AEs", "setting": "four days after stopping macitentan", "result": "most of the AEs resolved"}, {"measurement": "Sinusitis/rhinitis/nasal congestion, Severity of AEs (With titration)", "setting": "up-titration 10 mg, 37.5 mg, 75 mg qd, 6 subjects", "result": "Mild, less"}, {"measurement": "completion of treatment", "setting": "up-titration regimen cohort", "result": "All subjects completed treatment"}]}]}
